Source: paper PMC6379368, “Extracellular and intracellular small-molecule galectin-3 inhibitors” (Scientific Reports, 2019)

Experiments:
[1] = Caco-2 permeability assay; settings: human, Caco-2, pH 7.4
galectin-3 = galectin-3 (Homo sapiens, UniProt P17931); experiment: GPN-induced galectin-3 accumulation (puncta) in JIMT-1 breast cancer cells; format: cell-based; parameters: In the intracellular assay, in contrast, only endogenous galectin was present; endogenous in cells; host or cells: JIMT-1 breast cancer cells
Description: The total number of galectin-3 puncta and nuclei in the microscopy images were quantified using the software ImageJ.
Cells were seeded in multi-well plates with sterile glass coverslips placed in each well and allowed to adhere to the cell culture surface for at least 24 hours. Then the cells were pre-treated with the different galectin-3 inhibitors at different concentrations (or DMSO as control) for 15 minutes or 24 hours followed by addition of the lysosomal damaging peptide GPN[42] and incubated another 13 minutes, with the inhibitors still present. The 13-minute incubation with GPN and 15-minute pre-incubation with inhibitors were done in DMEM/Ham’s F12 medium with 15 mM HEPES buffer (without serum), whereas the 24-hour incubation with inhibitors were performed in fully supplemented DMEM/Ham’s F12 medium (as described under Cell culture).
After treatment with GPN, the cells were fixed in 3.7% (v/v) formaldehyde in phosphate-buffered saline (PBS) for 15 minutes, permeabilized and blocked using 1% (v/v) TWEEN 20 and 5% (w/v) BSA in PBS for 30 minutes, then incubated with primary and secondary antibodies for one hour each (washed with PBS in between). Primary and secondary antibodies for galectin-3 staining were a rat anti-mouse galectin-3 IgG antibody[50],[51] […] All antibodies were diluted in 0.05% TWEEN 20 and 5% BSA in PBS. […] The coverslips were mounted on glass slides using Mowiol® 4–88 and left at 8 °C overnight before further examination. For imaging of the cells, a LSM-510 confocal laser scanning microscope (Carl Zeiss Microscopy GmbH, Oberkochen, Germany), equipped with a Hamamatsu R6357 photomultiplier (Hamamatsu Photonics K.K., Hamamatsu, Japan), was used. […] Maximum intensity projections of each picture obtained were analyzed with ImageJ 1.47 v (Rasband, W.S., ImageJ, U. S. National Institutes of Health, Bethesda, Maryland, USA) to quantify the number of galectin-3 dots and the number of nuclei in each picture. The quantification of particles (i.e. galectin-3 puncta/nucleus) was carried out using batch processing in the software, where a single macro (including parameters such as image thresholds, particle size and circularity) was used for all images obtained from a single experiment, this to reduce user bias and time consumption.

Chain of galectin-3 (P17931 whole entry): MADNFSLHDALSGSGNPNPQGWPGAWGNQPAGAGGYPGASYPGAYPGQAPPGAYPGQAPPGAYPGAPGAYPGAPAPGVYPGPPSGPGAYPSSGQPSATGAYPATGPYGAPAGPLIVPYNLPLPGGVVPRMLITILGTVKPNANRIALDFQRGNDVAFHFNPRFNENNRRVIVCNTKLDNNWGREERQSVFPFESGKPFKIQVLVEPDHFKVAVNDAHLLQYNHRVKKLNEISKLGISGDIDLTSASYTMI

OC[C@H]1O[C@@H](S[C@@H]2O[C@H](CO)[C@H](O)[C@H](n3cc(-c4cccc(F)c4)nn3)[C@H]2O)[C@H](O)[C@@H](n2cc(-c3cccc(F)c3)nn2)[C@H]1O [compound 1]
Papp A→B [1]: 0.07 ×10⁻⁶ cm/s
Papp B→A [1]: 0.05 ×10⁻⁶ cm/s
inhibition of galectin-3 accumulation (extent) (galectin-3; 15 minutes pre-treatment, high concentrations 50–100 µM): complete inhibition of galectin-3 accumulation could not be reached
inhibition of galectin-3 accumulation (extent) (galectin-3; 24 hours pre-treatment, around 1–5 µM): nearly complete inhibition
